Assay results: article PMC12289066, “Identification of glutathione transferase (GST P1) inhibitors via a high-throughput screening assay and implications as alternative treatment options for breast cancers” (PLOS One, 2025)
Like-named read-outs stand apart in the source and are kept apart here.

Legend:
GST P1-1 [1] = target: T1, GST P1-1 (Homo sapiens, UniProt P09211); test: High-throughput GST P1-1 inhibition assay (384-well screen, CDNB/GSH); format: biochemical; conditions: compound 10 μM; score 0 = negative control (DMSO), 1 = positive control (EA 50 μM); average of duplicate
T1 construct: purchased Sigma-Aldrich
T1 sequence (P09211 2-210 limits assumed): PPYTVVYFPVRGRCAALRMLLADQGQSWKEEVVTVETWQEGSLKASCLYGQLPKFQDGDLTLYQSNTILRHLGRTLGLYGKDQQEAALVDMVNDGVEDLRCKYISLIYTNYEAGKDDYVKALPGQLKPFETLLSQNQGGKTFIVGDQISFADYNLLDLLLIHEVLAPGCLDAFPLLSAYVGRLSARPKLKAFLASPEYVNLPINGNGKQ
Experimental: (§1) Each drug compound was added to the respective well at a volume of 80 nL of 10 mM stock solution in DMSO, yielding a final compound concentration of 10 μM and a final DMSO concentration of 0.1%. Each plate’s first and last two columns were used as negative (no compound added – 80 nL per well of DMSO) and positive (80 nL of EA added with a final concentration of 50 μM) controls, respectively. The Gyger Certus Flex dispenser was set up using a freshly prepared 1 mM of GSH and 20 nM of GST P1-1, pH 7.4, in one syringe and 8 mM CDNB solution in pure ethanol in the other syringe. Into each well 80 μL of GST-GSH solution was dispensed and incubated at 25°C for 20 minutes before the reaction was initiated by the addition of 4 μL of CDNB solution. The plates were incubated for 2 h in the dark at 25°C and then the absorbance was of each well recorded on a BioTek Synergy NEO HTS multimode plate reader (Agilent®) at a wavelength of 340 nm.
The z’factor was calculated for each plate according to Zhang et al.. The Z-factor is a dimensionless, simple statistical characteristic for each HTS assay. This provides a valuable tool for the comparison and assessment of the quality of assays, and can be utilized in assay optimization and validation. For each plate, the concentration of product was normalized by assigning a score of 0 (0%) to the negative control (average of maximal concentration of product measured in the presence of enzyme without any inhibitor) and a score of 1 (100%) was assigned to the positive control (average minimal concentration of product measured in the presence of enzyme with the reference inhibitor, i.e., EA). The experiment was performed in duplicate and the score for each drug compound was calculated as an average ± standard deviation. […] An internal laboratory information management system (LIMS) was used for basic data processing, management, visualization, and statistical hit validation.

MCF-7 cells = test: MTT cytotoxicity assay, MCF-7; format: cell-based, human; conditions: MTT, 72 h incubation, read-out: IC50 (average ± standard deviation) MCF-7
Experimental: (§2) L929, MCF-7, and MDA-MB-231 cell lines were cultured in DMEM GlutaMAX media containing 10% heat-inactivated FBS and 1% (v/v) penicillin-streptomycin at 37°C and CO2 (5%). Cytotoxicity was determined using a 3-(4,5-dimethyl 2-thiazolyl)-2,5-diphenyl-2H-tetrazolium bromide (MTT) assay. 100 μL aliquots and approximately 50’000 cells/well were added to each well of flat-bottomed 96-well plates and incubated for 24 h in a humidified chamber at 37°C under saturated air with a 5% CO2 atmosphere. Stock solutions of 10 mM drug compounds were prepared in DMSO and were sequentially diluted with the cell culture buffer to give a final DMSO concentration of 0.5%. The solutions were added to the 96-well plates in 100 μL aliquots and 100 μL of buffer was added as a control to give a final drug compound concentration range of 0 − 100 μM. The plates were incubated for a further 72 h under the same conditions as before. MTT (10 μL, 5 mg/mL in Dulbecco’s phosphate-buffered saline) was added to each well and the plates were incubated for a further 3 h under the same conditions as before. The culture medium was aspirated from each well and the purple formazan crystals, formed by the mitochondrial dehydrogenase activity of vital cells, were dissolved in 100 μL DMSO. The absorbance of the resulting solutions was measured at 570 and 630 nm using a SpectraMax M5e multimode microplate reader and SoftMax Pro software, version 6.2.2. As the absorbance is directly proportional to the number of surviving cells, the percentage of surviving cells was calculated from the absorbance of wells relative to the control. The reported IC50 values are based on the mean from four independent experiments, each comprising three replicates per concentration.

L929 cells = test: MTT cytotoxicity assay, L929; format: cell-based, mouse; conditions: MTT, 72 h incubation, read-out: IC50 (average ± standard deviation) L929
Experimental: as §2, with “Cytotoxicity” for “L929, MCF-7, and MDA-MB-231 cell lines were cultured in DMEM GlutaMAX media containing 10% heat-inactivated FBS and 1% (v/v) penicillin-streptomycin at 37°C and CO2 (5%). Cytotoxicity”, “Stock solutions of 10 mM drug compounds were prepared in DMSO and were sequentially diluted with the cell culture buffer to give a final DMSO concentration of 0.5%. The solutions were added to the 96-well plates in 100 μL aliquots and 100 μL of buffer was added as a control to give a final drug compound concentration range of 0 − 100 μM.” left out

GST P1-1 [2] = target: T1, GST P1-1; test: Determination of IC50 for GST P1-1 enzyme (dose-response / reconfirmation assay); format: biochemical
Experimental: as §1
The IC50 of the GST P1-1 enzyme was determined for the 80 drug compounds with the highest score in the GST P1-1 screening assay. The assay conditions were used for the screening assay and each drug compound was tested at 8 different concentrations (μM) starting at 30 µM final assay concentration with a half-log dilution and 2 replicates per concentration.

MDA-MB-231 cells = test: MTT cytotoxicity assay, MDA-MB-231; format: cell-based, human; conditions: MTT, 72 h incubation, read-out: IC50 (average ± standard deviation) MDA-MB-231
Experimental: as §2

[3] = Table 2, rounded values, read-out: IC50 GSTP1 enzymatic reaction
[4] = reconfirmation assay, Table S2, read-out: IC50 GSTP1

| Compound | Score (GST P1-1 [1]) | IC50 (MCF-7 cells; Homo sapiens, MCF7) [µM] | IC50 (L929 cells; Mus musculus, L929) [µM] | IC50 (GST P1-1 [2]; [3]) [µM] | Hill Slope (dose-response curve) (GST P1-1 [2]; reconfirmation assay) | IC50 (MDA-MB-231 cells; Homo sapiens, MDA-MB-231) [µM] | IC50 (MCF-7 cells) [µM] | IC50 (L929 cells) [µM] | IC50 (MDA-MB-231 cells) [µM] | IC50 (GST P1-1 [2]; [4]) [µM] |
| --- | --- | --- | --- | --- | --- | --- | --- | --- | --- | --- |
| O=C(O)[C@]1(Cc2cccc(Nc3nccs3)n2)CC[C@@H](Oc2cccc(Cl)c2F)CC1 [MK-5108] | 0.933 | 3.4 ± 0.8 | 2.2 ± 0.5 | 3.2 | 13.6 | > 100 |  |  |  |  |
| CC(C)(C)C(=O)CN1C(=O)[C@H](NC(=O)Nc2cccc(C(=O)O)c2)CN(C2CCCCC2)c2ccccc21 [Nastorazepide] | 0.958 |  |  | 3.3 | 10.6 |  | > 100 | > 100 | > 100 |  |
| O=C(O)c1ccccc1Nc1ccc(CCc2ccc(Cl)c(Cl)c2)cc1 [PD-118057] | 0.858 |  |  | 0.3 | 1.8 |  | 41 ± 4 | > 100 | > 100 | 0.33 |
| O=C(O)c1ccc(S(=O)(=O)N(Cc2ccc(OC(F)(F)F)cc2)c2ncc(C(F)(F)F)cc2Cl)cc1 [RQ-00203078] | 0.697 |  |  | 3.1 | 1.6 |  | 17 ± 2 | 42 ± 6 | 51 ± 6 |  |
| O=C1CC(=O)c2c(Cl)c(Cl)c(Cl)c(Cl)c21 [TCID] | 1.094 |  |  | 0.9 | 1.16 |  | > 100 | > 100 | > 100 |  |
| N#Cc1c(-c2ccccc2)cc(-c2cc(Br)ccc2O)[nH]c1=O [TCS PIM-1 1] | 0.813 |  |  | 2.2 | 2.5 |  | 74 ± 4 | 36 ± 3 | > 100 | 2.15 |
| C=CC(=O)c1ccc2ccccc2c1 [ZM 449829] |  |  |  | 1.4 | 1.3 |  | 6.8 ± 0.2 | 8.1 ± 0.4 | 10.3 ± 0.2 |  |
| O=C(O)c1cc(N2N=C(C(F)(F)F)/C(=C/c3ccc(-c4ccccc4)o3)C2=O)ccc1Cl [en460] | 0.837 |  |  | 1.1 | 1.4 |  | 10 ± 1 | 18 ± 2 | 19 ± 1 |  |
| O=C(O)c1c(Sc2ccccc2)c2cc(Cl)ccc2n1Cc1ccc(Cl)cc1 [nTZDpa] | 0.909 |  |  | 0.95 | 1.7 |  | 39 ± 2 | 36 ± 3 | 95 ± 4 |  |
| PSB 06126 | 0.962 |  |  | 0.3 | 3.4 |  | 45 ± 3 | 39 ± 4 | > 100 | 0.29 |
| TC-I-2000 | 0.729 |  |  |  |  |  |  |  |  |  |
